Experimental data from patent US20150245612A1, “ACTIVE INGREDIENT FOR CONTROLLING SPIDER MITES” (BAYER CROPSCIENCE AG, priority 2014, published 2015).

Legend:
Type in all cases: in vivo
Panonychus citri [1] = assay: Panonychus citri test; outdoor spray treatment (METTCI), orange trees; settings: METTCI on C. sinensis
Excerpt: Panonychus citri test; outdoor spray treatment (METTCI)
To produce an appropriate active ingredient formulation, 1 part by weight of active ingredient is mixed with the stated amounts of water to the desired concentration. Added to the spray liquor is 0.1% a.i. rapeseed oil methyl ester.
(§1) Three two-year-old orange trees (Citrus sinensis) affected by all stages of the citrus red mite (Panonychus citri) are sprayed with an active ingredient formulation of each desired concentration. Application is effected with a motorized backpack sprayer. In accordance with common practice, the water application rate is 1000 l/Ha. One spray application is conducted in each case.
(§2) After the desired time, the remaining mites per leaf are counted and calculated as the efficacy by the Abbott formula:
(§3) B=treated plots K=untreated control plots

Panonychus citri [2] = assay: Panonychus citri test; outdoor spray treatment (METTCI), lemon trees; settings: METTCI on C. limon
Excerpt: (§4) Panonychus citri Test; Outdoor Spray Treatment (METTCI)
(§5) To produce an appropriate active ingredient formulation, 1 part by weight of active ingredient is mixed with the stated amounts of water to the desired concentration. Added to the spray liquor is 0.1% a.i. Crovol.
as §1, with “lemon” for “orange”, “limon)” for “sinensis)”
as §2, §3

Eutetranychus anneckei = Eutetranychus anneckei test; outdoor spray treatment (EUTEOR), orange trees; settings: EUTEOR on C. sinensis
Excerpt: Eutetranychus anneckei Test; Outdoor Spray Treatment (EUTEOR)
as §5
as §1, with “oriental spider” for “citrus red”, “(Eutetranychus anneckei)” for “(Panonychus citri)”
as §2, §3

Brevipalpus phoenicis = Brevipalpus phoenicis test; outdoor spray treatment (BRVPPH), orange trees; settings: BRVPPH on C. sinensis
Excerpt: Brevipalpus phoenicis Test; Outdoor Spray Treatment (BRVPPH)
as §5
as §1, with “eight-year-old” for “two-year-old”, “false spider” for “citrus red”, “(Brevipalpus phoenicis)” for “(Panonychus citri)”
as §2, §3

Phyllocoptruta oleivora = Phyllocoptruta oleivora test; outdoor spray treatment (PHYUOL), orange trees; settings: PHYUOL on C. sinensis
Excerpt: Phyllocoptruta oleivora Test; Outdoor Spray Treatment (PHYUOL)
as §5
as §1, with “Three 15-year-old” for “Three two-year-old”, “citrus rust” for “citrus red”, “mite (Phyllocoptruta oleivora)” for “mite (Panonychus citri)”
as §2, §3

Panonychus citri [3] = assay: Panonychus citri test; outdoor spray treatment (METTCI), satsuma trees; settings: METTCI on C. unshiu
Excerpt: as §4, §5
as §1, with “5-year-old satsuma” for “two-year-old orange”, “unshiu)” for “sinensis)”, “1850” for “1000”
as §2, §3

[4] = 100 g ai/ha/mch, + Crovol 0.1%, 7 Dat
[5] = 100 g ai/ha/mch, + Crovol 0.1%, 14 Dat

Cn1nc(C(F)(F)C(F)(F)F)c(C(F)(F)F)c1C(=O)Nc1ccc(Cl)c(C(=O)NCc2ccccc2)c1 [Compound (I)]
Efficacy (% Abbott) (Panonychus citri [1]; 50 g ai/ha/mch, + RME 0.1%, 1 Dat): 85 % Abbott | Efficacy (% Abbott) (Panonychus citri [1]; 50 g ai/ha/mch, + RME 0.1%, 5 Dat): 99 % Abbott | Efficacy (% Abbott) (Panonychus citri [1]; 100 g ai/ha/mch, + RME 0.1%, 1 Dat): 99 % Abbott | Efficacy (% Abbott) (Panonychus citri [1]; 100 g ai/ha/mch, + RME 0.1%, 5 Dat): 100 % Abbott | Efficacy (% Abbott) (Panonychus citri [2]; 100 g ai/ha/mch, + Crovol 0.1%, 6 Dat): 90 % Abbott | Efficacy (% Abbott) (Panonychus citri [2]; 100 g ai/ha/mch, + Crovol 0.1%, 23 Dat): 99 % Abbott | Efficacy (% Abbott) (Eutetranychus anneckei; 100 g ai/ha/mch, + Crovol 0.1%, 8 Dat): 99 % Abbott | Efficacy (% Abbott) (Eutetranychus anneckei; 100 g ai/ha/mch, + Crovol 0.1%, 16 Dat): 99 % Abbott | Efficacy (% Abbott) (Eutetranychus anneckei; 100 g ai/ha/mch, + Crovol 0.1%, 22 Dat): 100 % Abbott | Efficacy (% Abbott) (Eutetranychus anneckei; 100 g ai/ha/mch, + Crovol 0.1%, 30 Dat): 98 % Abbott | Efficacy (% Abbott) (Eutetranychus anneckei; 100 g ai/ha/mch, + Crovol 0.1%, 36 Dat): 93 % Abbott | Efficacy (% Abbott) (Brevipalpus phoenicis; 100 g ai/ha/mch, + Crovol 0.1%, 3 Dat): 88.4 % Abbott | Efficacy (% Abbott) (Brevipalpus phoenicis; [4]): 95 % Abbott | Efficacy (% Abbott) (Brevipalpus phoenicis; [5]): 100 % Abbott | Efficacy (% Abbott) (Brevipalpus phoenicis; 100 g ai/ha/mch, + Crovol 0.1%, 21 Dat): 100 % Abbott | Efficacy (% Abbott) (Brevipalpus phoenicis; 100 g ai/ha/mch, + Crovol 0.1%, 49 Dat): 92.7 % Abbott | Efficacy (% Abbott) (Brevipalpus phoenicis; 100 g ai/ha/mch, + Crovol 0.1%, 60 Dat): 100 % Abbott | Efficacy (% Abbott) (Phyllocoptruta oleivora; 75 g ai/ha/mch, + Crovol 0.1%, 5 Dat): 36 % Abbott | Efficacy (% Abbott) (Phyllocoptruta oleivora; 75 g ai/ha/mch, + Crovol 0.1%, 13 Dat): 45 % Abbott | Efficacy (% Abbott) (Phyllocoptruta oleivora; 75 g ai/ha/mch, + Crovol 0.1%, 19 Dat): 64 % Abbott | Efficacy (% Abbott) (Phyllocoptruta oleivora; 75 g ai/ha/mch, + Crovol 0.1%, 27 Dat): 72 % Abbott | Efficacy (% Abbott) (Phyllocoptruta oleivora; 100 g ai/ha/mch, + Crovol 0.1%, 5 Dat): 77 % Abbott | Efficacy (% Abbott) (Phyllocoptruta oleivora; 100 g ai/ha/mch, + Crovol 0.1%, 13 Dat): 84 % Abbott | Efficacy (% Abbott) (Phyllocoptruta oleivora; 100 g ai/ha/mch, + Crovol 0.1%, 19 Dat): 94 % Abbott | Efficacy (% Abbott) (Phyllocoptruta oleivora; 100 g ai/ha/mch, + Crovol 0.1%, 27 Dat): 96 % Abbott | Efficacy (% Abbott) (Panonychus citri [3]; 100 g ai/ha/mch, + Crovol 0.1%, 4 Dat): 100 % Abbott | Efficacy (% Abbott) (Panonychus citri [3]; [4]): 98.1 % Abbott | Efficacy (% Abbott) (Panonychus citri [3]; [5]): 97.6 % Abbott

Cc1nn(C)c(/C(OC(=O)C(C)(C)C)=C(\C#N)c2ccc(C(C)(C)C)cc2)c1C [Cyenopyrafen, reference compound]
Efficacy (% Abbott) (Eutetranychus anneckei; 150 g ai/ha/mch, 8 Dat): 100 % Abbott | Efficacy (% Abbott) (Eutetranychus anneckei; 150 g ai/ha/mch, 16 Dat): 96 % Abbott | Efficacy (% Abbott) (Eutetranychus anneckei; 150 g ai/ha/mch, 22 Dat): 100 % Abbott | Efficacy (% Abbott) (Eutetranychus anneckei; 150 g ai/ha/mch, 30 Dat): 83 % Abbott | Efficacy (% Abbott) (Eutetranychus anneckei; 150 g ai/ha/mch, 36 Dat): 63 % Abbott | Efficacy (% Abbott) (Brevipalpus phoenicis; 150 g ai/ha/mch, 3 Dat): 74.4 % Abbott | Efficacy (% Abbott) (Brevipalpus phoenicis; 150 g ai/ha/mch, 7 Dat): 92.5 % Abbott | Efficacy (% Abbott) (Brevipalpus phoenicis; 150 g ai/ha/mch, 14 Dat): 94.7 % Abbott | Efficacy (% Abbott) (Brevipalpus phoenicis; 150 g ai/ha/mch, 21 Dat): 100 % Abbott | Efficacy (% Abbott) (Brevipalpus phoenicis; 150 g ai/ha/mch, 49 Dat): 78 % Abbott | Efficacy (% Abbott) (Brevipalpus phoenicis; 150 g ai/ha/mch, 60 Dat): 97.6 % Abbott | Efficacy (% Abbott) (Phyllocoptruta oleivora; 150 g ai/ha/mch, 5 Dat): 32 % Abbott | Efficacy (% Abbott) (Phyllocoptruta oleivora; 150 g ai/ha/mch, 13 Dat): 29 % Abbott | Efficacy (% Abbott) (Phyllocoptruta oleivora; 150 g ai/ha/mch, 19 Dat): 31 % Abbott | Efficacy (% Abbott) (Phyllocoptruta oleivora; 150 g ai/ha/mch, 27 Dat): 32 % Abbott

CCC(C)(C)C(=O)OC1=C(c2ccc(Cl)cc2Cl)C(=O)OC12CCCCC2 [Spirodiclofen, reference compound]
Efficacy (% Abbott) (Panonychus citri [1]; 48 g ai/ha/mch, 1 Dat): 29 % Abbott | Efficacy (% Abbott) (Panonychus citri [1]; 48 g ai/ha/mch, 5 Dat): 90 % Abbott | Efficacy (% Abbott) (Panonychus citri [2]; 48 g ai/ha/mch, 6 Dat): 58 % Abbott | Efficacy (% Abbott) (Panonychus citri [2]; 48 g ai/ha/mch, 23 Dat): 100 % Abbott | Efficacy (% Abbott) (Panonychus citri [3]; 144 g ai/ha/mch, 4 Dat): 70.7 % Abbott | Efficacy (% Abbott) (Panonychus citri [3]; 144 g ai/ha/mch, 7 Dat): 85.2 % Abbott | Efficacy (% Abbott) (Panonychus citri [3]; 144 g ai/ha/mch, 14 Dat): 78 % Abbott
